What was measured:
Activin receptor type-1B = biological target: T1, Activin receptor type-1B (Homo sapiens, UniProt P36896); test: Inhibition of recombinant human GST-tagged ALK4 catalytic domain expressed in baculovirus expression system by Z'-LYTE assay
T1 sequence (P36896 whole entry): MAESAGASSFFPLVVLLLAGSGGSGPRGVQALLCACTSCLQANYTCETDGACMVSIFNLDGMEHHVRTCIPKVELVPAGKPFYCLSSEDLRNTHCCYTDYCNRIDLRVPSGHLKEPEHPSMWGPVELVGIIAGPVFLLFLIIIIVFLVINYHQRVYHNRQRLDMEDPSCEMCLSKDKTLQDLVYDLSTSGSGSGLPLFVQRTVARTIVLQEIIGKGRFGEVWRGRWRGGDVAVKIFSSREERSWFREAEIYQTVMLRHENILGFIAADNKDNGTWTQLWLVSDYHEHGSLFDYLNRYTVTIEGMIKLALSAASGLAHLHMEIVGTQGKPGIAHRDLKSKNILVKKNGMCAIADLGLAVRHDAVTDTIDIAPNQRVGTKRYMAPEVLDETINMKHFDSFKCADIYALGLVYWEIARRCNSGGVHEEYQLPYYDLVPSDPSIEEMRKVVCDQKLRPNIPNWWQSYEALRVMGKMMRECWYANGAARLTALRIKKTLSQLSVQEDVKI

[1] = biological target: G protein-coupled receptor kinase 4 (Homo sapiens, UniProt P32298); test: Inhibition of full-length recombinant human GST-tagged GRK4 expressed in baculovirus expression system by Z'-LYTE assay
G protein-coupled receptor kinase 4, sequence (P32298 whole entry, the tested form may be a part): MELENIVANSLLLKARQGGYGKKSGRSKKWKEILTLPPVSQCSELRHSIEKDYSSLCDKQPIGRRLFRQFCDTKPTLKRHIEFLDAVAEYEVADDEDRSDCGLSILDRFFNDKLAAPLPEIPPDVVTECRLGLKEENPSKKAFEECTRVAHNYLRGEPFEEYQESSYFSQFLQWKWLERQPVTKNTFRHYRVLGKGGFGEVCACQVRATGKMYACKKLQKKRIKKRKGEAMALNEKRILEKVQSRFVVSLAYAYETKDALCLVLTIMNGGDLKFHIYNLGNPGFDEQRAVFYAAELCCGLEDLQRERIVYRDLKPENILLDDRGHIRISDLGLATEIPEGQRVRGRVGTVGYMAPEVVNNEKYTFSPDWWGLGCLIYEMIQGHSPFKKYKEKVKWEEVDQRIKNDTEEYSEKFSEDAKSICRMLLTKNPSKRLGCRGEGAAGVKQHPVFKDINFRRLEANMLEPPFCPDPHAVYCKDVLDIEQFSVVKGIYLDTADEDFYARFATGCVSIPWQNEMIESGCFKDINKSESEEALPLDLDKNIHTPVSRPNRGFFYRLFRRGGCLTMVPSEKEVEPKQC

[2] = biological target: cAMP-dependent protein kinase catalytic subunit alpha (Homo sapiens, UniProt P17612); test: Inhibition of recombinant human His-tagged PRKACA catalytic domain expressed in Escherichia coli by Z'-LYTE assay
[3] = biological target: Tyrosine-protein kinase JAK1 (Homo sapiens, UniProt P23458); test: Inhibition of recombinant human GST-tagged cytoplasmic JAK1 (866 to 1154 residues) catalytic domain expressed in baculovirus expression system by Z'-LYTE assay
Tyrosine-protein kinase JAK1, sequence (P23458 whole entry, the tested form may be a part): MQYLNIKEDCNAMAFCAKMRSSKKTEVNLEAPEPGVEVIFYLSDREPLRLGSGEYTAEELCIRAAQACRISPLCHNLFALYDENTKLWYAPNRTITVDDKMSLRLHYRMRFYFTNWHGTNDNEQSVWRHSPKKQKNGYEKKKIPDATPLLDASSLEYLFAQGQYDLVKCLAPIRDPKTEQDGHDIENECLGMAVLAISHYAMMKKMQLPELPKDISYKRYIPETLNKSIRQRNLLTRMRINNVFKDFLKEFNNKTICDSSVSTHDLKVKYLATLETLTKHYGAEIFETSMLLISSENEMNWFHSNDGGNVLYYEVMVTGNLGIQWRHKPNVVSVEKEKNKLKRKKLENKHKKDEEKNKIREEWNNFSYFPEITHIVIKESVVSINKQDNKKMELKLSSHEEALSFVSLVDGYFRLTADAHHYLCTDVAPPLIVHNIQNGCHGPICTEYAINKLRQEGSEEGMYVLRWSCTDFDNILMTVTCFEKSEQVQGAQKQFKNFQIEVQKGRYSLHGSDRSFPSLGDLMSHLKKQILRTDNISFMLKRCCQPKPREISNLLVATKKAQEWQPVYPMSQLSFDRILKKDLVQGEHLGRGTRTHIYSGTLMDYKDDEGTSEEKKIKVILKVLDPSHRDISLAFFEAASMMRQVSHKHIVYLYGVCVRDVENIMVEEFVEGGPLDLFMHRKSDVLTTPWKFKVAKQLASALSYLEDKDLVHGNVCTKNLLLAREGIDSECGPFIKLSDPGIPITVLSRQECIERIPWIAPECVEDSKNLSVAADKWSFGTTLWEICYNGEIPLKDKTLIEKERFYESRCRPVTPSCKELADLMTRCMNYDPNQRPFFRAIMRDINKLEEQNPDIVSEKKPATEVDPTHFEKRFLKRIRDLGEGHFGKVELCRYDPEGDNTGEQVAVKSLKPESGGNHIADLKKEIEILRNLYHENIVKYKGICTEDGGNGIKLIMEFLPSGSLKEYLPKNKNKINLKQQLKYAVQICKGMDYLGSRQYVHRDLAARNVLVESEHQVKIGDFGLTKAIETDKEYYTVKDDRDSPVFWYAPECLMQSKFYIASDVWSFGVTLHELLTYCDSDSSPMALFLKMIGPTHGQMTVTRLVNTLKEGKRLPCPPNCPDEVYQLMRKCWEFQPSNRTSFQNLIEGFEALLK

Misshapen-like kinase 1 = Misshapen-like kinase 1 (Homo sapiens, UniProt Q8N4C8); test: Inhibition of recombinant human His-tagged MINK1 catalytic domain expressed in baculovirus expression system by Z'-LYTE assay
Misshapen-like kinase 1, sequence (Q8N4C8 whole entry, the tested form may be a part): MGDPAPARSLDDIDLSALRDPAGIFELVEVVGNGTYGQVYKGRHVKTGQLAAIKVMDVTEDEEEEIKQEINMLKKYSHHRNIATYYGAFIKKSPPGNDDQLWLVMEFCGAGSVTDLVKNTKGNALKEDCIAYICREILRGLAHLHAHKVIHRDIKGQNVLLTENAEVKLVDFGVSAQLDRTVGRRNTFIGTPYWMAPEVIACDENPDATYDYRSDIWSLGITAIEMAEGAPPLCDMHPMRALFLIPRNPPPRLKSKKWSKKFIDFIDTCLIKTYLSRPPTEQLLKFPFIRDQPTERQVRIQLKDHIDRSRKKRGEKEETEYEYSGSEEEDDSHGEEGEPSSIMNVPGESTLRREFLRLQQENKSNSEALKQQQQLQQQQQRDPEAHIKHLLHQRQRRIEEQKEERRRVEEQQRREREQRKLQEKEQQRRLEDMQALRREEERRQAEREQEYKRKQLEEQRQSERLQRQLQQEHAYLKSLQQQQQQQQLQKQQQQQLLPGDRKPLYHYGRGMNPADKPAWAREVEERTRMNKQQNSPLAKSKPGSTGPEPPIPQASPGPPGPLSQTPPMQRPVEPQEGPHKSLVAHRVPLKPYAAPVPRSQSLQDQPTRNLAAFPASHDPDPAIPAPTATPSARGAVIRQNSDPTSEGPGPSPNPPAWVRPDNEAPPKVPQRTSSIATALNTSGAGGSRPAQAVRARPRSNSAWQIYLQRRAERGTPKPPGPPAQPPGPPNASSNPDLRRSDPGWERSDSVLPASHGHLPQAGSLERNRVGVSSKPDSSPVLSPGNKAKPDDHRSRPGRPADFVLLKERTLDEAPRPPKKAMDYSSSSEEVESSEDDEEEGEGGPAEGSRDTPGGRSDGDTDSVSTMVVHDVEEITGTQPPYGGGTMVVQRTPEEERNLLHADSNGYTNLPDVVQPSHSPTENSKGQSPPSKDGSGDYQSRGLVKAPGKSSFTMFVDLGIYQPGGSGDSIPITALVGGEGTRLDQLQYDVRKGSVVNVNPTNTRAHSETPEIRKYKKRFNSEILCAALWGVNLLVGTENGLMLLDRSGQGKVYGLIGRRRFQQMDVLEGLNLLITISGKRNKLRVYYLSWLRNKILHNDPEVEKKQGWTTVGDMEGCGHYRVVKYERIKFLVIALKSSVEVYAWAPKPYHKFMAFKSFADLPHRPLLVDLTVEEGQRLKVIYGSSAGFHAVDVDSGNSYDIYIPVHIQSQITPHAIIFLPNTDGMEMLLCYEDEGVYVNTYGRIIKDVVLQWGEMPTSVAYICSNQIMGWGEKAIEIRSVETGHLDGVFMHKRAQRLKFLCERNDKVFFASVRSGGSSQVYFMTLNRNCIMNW

Ephrin type-B receptor 2 = biological target: T2, Ephrin type-B receptor 2 (Homo sapiens, UniProt P29323); test: Inhibition of recombinant human GST-tagged cytoplasmic EPHB2 expressed in baculovirus expression system by Z'-LYTE assay
T2 sequence (P29323 whole entry): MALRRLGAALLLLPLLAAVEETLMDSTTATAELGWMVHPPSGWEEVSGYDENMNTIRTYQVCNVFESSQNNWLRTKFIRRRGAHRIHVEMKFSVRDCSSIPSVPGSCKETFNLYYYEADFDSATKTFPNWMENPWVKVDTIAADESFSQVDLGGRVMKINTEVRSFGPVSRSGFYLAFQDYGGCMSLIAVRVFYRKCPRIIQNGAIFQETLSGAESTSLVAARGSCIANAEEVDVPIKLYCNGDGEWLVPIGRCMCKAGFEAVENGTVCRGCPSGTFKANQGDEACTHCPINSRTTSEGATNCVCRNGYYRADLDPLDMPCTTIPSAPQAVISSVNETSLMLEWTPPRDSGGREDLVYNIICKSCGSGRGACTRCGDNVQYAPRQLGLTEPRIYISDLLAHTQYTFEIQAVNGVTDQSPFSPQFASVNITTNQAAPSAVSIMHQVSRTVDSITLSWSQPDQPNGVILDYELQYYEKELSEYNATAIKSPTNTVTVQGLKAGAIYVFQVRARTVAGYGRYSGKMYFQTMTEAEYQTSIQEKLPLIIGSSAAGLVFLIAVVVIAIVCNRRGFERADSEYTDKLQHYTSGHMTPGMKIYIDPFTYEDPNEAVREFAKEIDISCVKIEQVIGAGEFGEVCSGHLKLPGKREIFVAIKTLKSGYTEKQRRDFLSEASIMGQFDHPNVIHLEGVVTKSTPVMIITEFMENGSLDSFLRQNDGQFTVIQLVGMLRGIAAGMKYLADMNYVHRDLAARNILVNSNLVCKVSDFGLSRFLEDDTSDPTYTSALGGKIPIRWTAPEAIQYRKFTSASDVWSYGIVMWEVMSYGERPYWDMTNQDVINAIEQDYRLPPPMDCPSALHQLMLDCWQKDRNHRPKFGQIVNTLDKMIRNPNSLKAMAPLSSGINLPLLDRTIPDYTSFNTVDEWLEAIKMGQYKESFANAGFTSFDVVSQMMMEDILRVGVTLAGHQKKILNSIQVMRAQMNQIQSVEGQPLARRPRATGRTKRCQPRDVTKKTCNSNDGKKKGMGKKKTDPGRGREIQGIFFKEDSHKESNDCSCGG

[4] = biological target: Tyrosine-protein kinase JAK2 (Homo sapiens, UniProt O60674); test: Inhibition of recombinant human GST-tagged cytoplasmic JAK2 (809 to 1153 residues) expressed in baculovirus expression system by Z'-LYTE assay
Tyrosine-protein kinase JAK2, sequence (O60674 whole entry, the tested form may be a part): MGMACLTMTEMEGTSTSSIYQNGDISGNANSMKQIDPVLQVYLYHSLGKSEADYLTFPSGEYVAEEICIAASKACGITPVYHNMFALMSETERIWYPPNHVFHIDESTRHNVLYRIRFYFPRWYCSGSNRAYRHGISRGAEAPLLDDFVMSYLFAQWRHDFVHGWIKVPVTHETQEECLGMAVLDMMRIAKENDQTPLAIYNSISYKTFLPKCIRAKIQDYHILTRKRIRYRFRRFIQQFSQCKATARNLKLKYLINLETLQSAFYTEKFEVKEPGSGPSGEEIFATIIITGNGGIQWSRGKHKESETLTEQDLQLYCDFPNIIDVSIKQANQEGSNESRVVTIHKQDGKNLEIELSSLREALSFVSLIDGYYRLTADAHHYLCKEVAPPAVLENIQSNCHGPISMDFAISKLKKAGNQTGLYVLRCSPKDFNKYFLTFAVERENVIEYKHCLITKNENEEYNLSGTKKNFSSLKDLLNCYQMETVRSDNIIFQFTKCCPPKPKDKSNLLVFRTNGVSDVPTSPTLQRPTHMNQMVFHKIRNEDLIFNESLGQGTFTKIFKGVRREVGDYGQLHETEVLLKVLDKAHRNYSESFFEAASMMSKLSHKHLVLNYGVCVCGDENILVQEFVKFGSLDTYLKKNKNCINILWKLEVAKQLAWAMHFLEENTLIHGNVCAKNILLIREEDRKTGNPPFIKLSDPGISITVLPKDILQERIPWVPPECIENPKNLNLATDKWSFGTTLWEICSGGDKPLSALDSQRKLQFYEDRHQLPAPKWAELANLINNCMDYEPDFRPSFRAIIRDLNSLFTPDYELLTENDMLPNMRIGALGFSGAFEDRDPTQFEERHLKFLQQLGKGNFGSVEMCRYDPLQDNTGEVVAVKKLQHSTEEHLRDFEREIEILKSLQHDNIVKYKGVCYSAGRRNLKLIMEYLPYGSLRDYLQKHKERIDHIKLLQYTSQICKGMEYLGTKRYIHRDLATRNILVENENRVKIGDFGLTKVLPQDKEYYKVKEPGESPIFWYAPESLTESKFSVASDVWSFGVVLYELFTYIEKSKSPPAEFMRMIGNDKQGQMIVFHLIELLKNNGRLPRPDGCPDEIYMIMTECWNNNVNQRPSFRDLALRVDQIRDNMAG

Row | Compound | IC50 (Activin receptor type-1B) | IC50 [1] | IC50 [2] | IC50 [3] | IC50 (Misshapen-like kinase 1) | IC50 (Ephrin type-B receptor 2) | IC50 [4]
1 | Cn1cc(-c2cnc3c(-c4csc(C(=O)NCC(F)(F)F)c4)cnn3c2)cn1 | 170 nM | 19000 nM | > 100000 nM | 4200 nM | 22 nM | 36 nM | 1200 nM
2 | Cc1sc(C(=O)N[C@@H]2[C@H](N)CCCC2(F)F)cc1-c1cnn2cc(Cl)cnc12 | > 100000 nM | 670 nM | 3000 nM | 4300 nM | 140 nM | 3800 nM | 4400 nM
3 | O=C(NCC(F)(F)F)c1cc(-c2cnn3cc(-c4ccc(OCCN5CCCCC5)cc4)cnc23)cs1 | 200 nM | 5300 nM | 15000 nM | 2300 nM | 13 nM | < 10 nM | 2400 nM
4 | Cn1cc(-c2cnc3c(-c4csc(C(=O)N[C@@H]5CCCC[C@@H]5N)c4)cnn3c2)cn1 (racemic) | 730 nM | 260 nM | 27 nM | 220 nM | 6 nM | 2.9 nM | 64 nM

From ChEMBL document CHEMBL4477252, “Optimization of microtubule affinity regulating kinase (MARK) inhibitors with improved physical properties” (Bioorg Med Chem Lett, 2016)
